PubChem BioAssay (NCI)
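Dose response: 5 concentrations. Exposure: 48 h. Format: 96-well plates. Endpoint: linear interpolation; highest concentration if not reached. GI50 is the concentration that inhibits growth by half. TGI marks complete inhibition of growth.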

Legend:
Experiment in all cases: DTP human tumour cell line panel, 48 h
[1] = system: SNB-75 CNS
[2] = system: OVCAR-4 ovarian
[3] = system: 786-0 renal
[4] = system: SF-295 CNS
[5] = system: M14 melanoma
[6] = system: HL-60(TB) leukemia
[7] = system: KM12 colon
[8] = system: HCT-15 colon
[9] = system: HT29 colon
[10] = system: MCF7 breast
[11] = system: MALME-3M melanoma
[12] = system: A498 renal
[13] = system: LOX IMVI melanoma
[14] = system: HCC-2998 colon
[15] = system: SF-268 CNS
[16] = system: A549 NSCLC
[17] = system: HOP-62 NSCLC
[18] = system: SK-MEL-5 melanoma
[19] = system: K-562 leukemia
[20] = system: SNB-19 CNS
[21] = system: UO-31 renal
[22] = system: BT-549 breast
[23] = system: T-47D breast
[24] = system: HS 578T breast
[25] = system: MDA-MB-231 breast
[26] = system: NCI/ADR-RES ovarian
[27] = system: EKVX NSCLC
[28] = system: RXF 393 renal
[29] = system: SF-539 CNS
[30] = system: DU-145 prostate
[31] = system: NCI-H460 lung
[32] = system: TK-10 renal
[33] = system: PC-3 prostate
[34] = system: RPMI-8226 leukemia
[35] = system: SK-MEL-2 melanoma
[36] = system: U251 CNS
[37] = system: OVCAR-5 ovarian
[38] = system: SN12C renal
[39] = system: OVCAR-3 ovarian
[40] = system: IGROV1 ovarian
[41] = system: SK-MEL-28 melanoma
[42] = system: UACC-62 melanoma
[43] = system: OVCAR-8 ovarian
[44] = system: COLO 205 colon
[45] = system: HCT-116 colon
[46] = system: SW-620 colon
[47] = system: ACHN renal
[48] = system: CAKI-1 renal
[49] = system: MOLT-4 leukemia
[50] = system: SK-OV-3 ovarian
[51] = system: NCI-H522 lung
[52] = system: MDA-MB-435

`Fc1ccc(-c2ncn(C3CCNCC3)c2-c2ccnc(Oc3cccc(C(F)(F)F)c3)n2)cc1` was tested, and the GI50 [1] was 2.01 µM, the TGI [1] was 6.52 µM and the GI50 [2] was 3.62 µM. For the same molecule, the TGI [2] was 7.26 µM, the GI50 [3] was 3.82 µM and the TGI [3] was 7.49 µM. The GI50 [4] was 3.92 µM, the TGI [4] was 8.1 µM and the GI50 [5] was 4.54 µM. It also gave a TGI [5] of 8.73 µM, a GI50 [6] of 4.58 µM and a TGI [6] of 9.6 µM. For the same molecule, the GI50 [7] was 3.93 µM, the TGI [7] was 7.36 µM and the GI50 [8] was 3.79 µM. The TGI [8] was 7.25 µM, the GI50 [9] was 2.54 µM and the TGI [9] was 5.54 µM. It also gave a GI50 [10] of 3.68 µM, a TGI [10] of 7.3 µM and a GI50 [11] of 4.66 µM. It also gave a TGI [11] of 10.1 µM, a GI50 [12] of 1.37 µM and a TGI [12] of 6.91 µM. It also gave a GI50 [13] of 8.96 µM, a TGI [13] of 14.1 µM and a GI50 [14] of 3.92 µM. The TGI [14] was 8.35 µM, the GI50 [15] was 3.64 µM and the TGI [15] was 7.37 µM. For the same molecule, the GI50 [16] was 4.23 µM, the TGI [16] was 7.94 µM and the GI50 [17] was 3.75 µM. For the same molecule, the TGI [17] was 7.47 µM, the GI50 [18] was 3.28 µM and the TGI [18] was 6.5 µM. The GI50 [19] was 3.8 µM, the TGI [19] was 9.12 µM and the GI50 [20] was 3.94 µM. It also gave a TGI [20] of 7.67 µM, a GI50 [21] of 2.8 µM and a TGI [21] of 6.41 µM. The GI50 [22] was 4.34 µM, the TGI [22] was 9.51 µM and the GI50 [23] was 2.93 µM. The TGI [23] was 6.43 µM, the GI50 [24] was 1.98 µM and the TGI [24] was 7.07 µM. For the same molecule, the GI50 [25] was 3.96 µM, the TGI [25] was 7.56 µM and the GI50 [26] was 4.27 µM. The TGI [26] was 9.03 µM, the GI50 [27] was 3.63 µM and the TGI [27] was 8.3 µM. For the same molecule, the GI50 [28] was 2.66 µM, the TGI [28] was 6.42 µM and the GI50 [29] was 3.92 µM. The TGI [29] was 7.68 µM, the GI50 [30] was 3.99 µM and the TGI [30] was 7.37 µM. The GI50 [31] was 3.82 µM, the TGI [31] was 7.81 µM and the GI50 [32] was 3.68 µM. For the same molecule, the TGI [32] was 7.22 µM, the GI50 [33] was 3.7 µM and the TGI [33] was 7.2 µM. The GI50 [34] was 4.87 µM, the TGI [34] was 11.7 µM and the GI50 [35] was 4.62 µM. It also gave a TGI [35] of 8.84 µM, a GI50 [36] of 3.61 µM and a TGI [36] of 7.08 µM. For the same molecule, the GI50 [37] was 3.21 µM, the TGI [37] was 6.37 µM and the GI50 [38] was 3.93 µM. It also gave a TGI [38] of 7.47 µM, a GI50 [39] of 3.88 µM and a TGI [39] of 7.26 µM. It also gave a GI50 [40] of 3.67 µM, a TGI [40] of 7.88 µM and a GI50 [41] of 3.62 µM. It also gave a TGI [41] of 6.93 µM, a GI50 [42] of 4.05 µM and a TGI [42] of 7.59 µM. The GI50 [43] was 4.17 µM, the TGI [43] was 8.58 µM and the GI50 [44] was 3.83 µM. It also gave a TGI [44] of 7.45 µM, a GI50 [45] of 3.65 µM and a TGI [45] of 7.29 µM. It also gave a GI50 [46] of 3.56 µM, a TGI [46] of 7.03 µM and a GI50 [47] of 3.29 µM. For the same molecule, the TGI [47] was 6.47 µM, the GI50 [48] was 4.38 µM and the TGI [48] was 9.12 µM. For the same molecule, the GI50 [49] was 4.15 µM, the TGI [49] was 9.48 µM and the GI50 [50] was 3.82 µM. It also gave a TGI [50] of 7.31 µM, a GI50 [51] of 4.03 µM and a TGI [51] of 7.95 µM. For the same molecule, the GI50 [52] was 3.99 µM and the TGI [52] was 8.15 µM.
